From patent US20130172387A1, “METHOD AND COMPOSITION FOR PROLONGING ANALGESIC EFFECT OF LOCAL ANESTHETIC” (priority 2011, published 2013)
Several values for one entry are separate records, joined by “and”; a condition that tells them apart may be missing. Equal values may be shown once.

Assays:
[1] = test system: cutaneous trunci muscle reflex (CTMR); assay: Noxious pinprick test of the cutaneous trunci muscle reflex after subcutaneous injection; assay type: in vivo; conditions: rat; for time of complete recovery (CRT): s.c. 0.6 ml, mean ± SE, n=8
Description: Subcutaneous Injection The animal experimental protocol was approved by the Animal Committee of Mackay Memorial Hospital in Taipei, Taiwan. Male Sprague-Dawley rats were purchased from BioLasco (Taipei, Taiwan) and kept in an air-conditioned animal shelter at room temperature of 22° C. to 24° C. with controlled level of humidity (40% to 50%) in a 12-hour light-dark cycle. […] The rats were randomly assigned to treatments with a size of 8 rats per group. All rats were briefly anesthetized by inhalation of 2% isoflurane (Abbott Laboratories, North Chicago, Ill.). The back of each rat was carefully shaved with a razor and was left with no injuries. After the induction of inhalation anesthesia, the drugs were injected subcutaneously in the thoracolumbar region. The injections caused a circular elevation of the skin, creating a wheal of approximately 2 cm in diameter. This wheal was marked within a minute after the injection.
Neurobehavioral Examination Before the experiments were conducted, the animals were handled daily for up to 14 days to familiarize them with the behavioral investigator, the experimental environment, and the specific experimental protocols. A noxious pinprick test was used to measure the analgesic effect of the cutaneous trunci muscle reflex (CTMR), which is characterized by reflex movements of the skin over the back produced by twitches of the lateral thoracispinal muscles in response to local dorsal cutaneous stimulations. The von Frey filament (26.0 g) was affixed to an 18-gauge needle to standardize the stimulus intensity and to test the neurobehavioral examination. Six pinpricks were applied in the marked areas every 15 minutes after each drug administration until the rats were fully recovered from the block. Six pinpricks per test were sufficient enough to obtain reproducible results in rats among different study groups, while avoiding injury of the skin during repeated testing. […] The total absence of CTMR response was defined as a complete blockade with 100% of maximum possible effect (MPE). Three CTMR pinprick responses indicated a 50% of MPE, while 0% of observed MPE would show the presence of all six CTMR pinprick responses. The complete recovery time (CRT) is defined as the time period when the presence of all six pinprick responses returned with 0% of MPE. All CTMR responses observed in rats were under stable vital signs. To determine skin irritation (such as necrosis, swelling and inflammation), assessment in any macroscopic changes of the skin color and texture was further studied. Systemic side effects such as sedation, agitation, and respiratory distress were also evaluated. The observer was not informed about the drugs used.
Statistical Analysis The statistical difference between the treatment groups was tested by using Mann-Whitney Rank Sum Test to evaluate the analgesic degree of MPE. Microcal Origin version 7 (Microcal Software, Northampton, Mass.) and SigmaStat (Systat Software, Inc., Chicago, Ill.) were used to calculate the values of MPE, creating figures and analyzing statistics. A p value of less than 0.05 was defined significant. All data are presented as mean±SE.

[2] = test system: subcutaneous tissue; conditions: rat, in vivo, sc
Description: Histology To determine the toxicity of the present composition to the subcutaneous tissue, skin was excised from the injected area of anesthetized rats two days later. The skin cross-section samples were fixed in 4% paraformaldehyde overnight and stained with hematoxylin and eosin.
Tissue inflammation was evaluated by the level of lymphocytic infiltrations in the cinnamaldehyde-injected subcutaneous layer of rats' cross-sectioned skin at 48 h.

[3] = test system: skin; conditions: rat, in vivo, sc
Description: Neurobehavioral Examination Before the experiments were conducted, the animals were handled daily for up to 14 days to familiarize them with the behavioral investigator, the experimental environment, and the specific experimental protocols. A noxious pinprick test was used to measure the analgesic effect of the cutaneous trunci muscle reflex (CTMR), which is characterized by reflex movements of the skin over the back produced by twitches of the lateral thoracispinal muscles in response to local dorsal cutaneous stimulations. […] Three CTMR pinprick responses indicated a 50% of MPE, while 0% of observed MPE would show the presence of all six CTMR pinprick responses. The complete recovery time (CRT) is defined as the time period when the presence of all six pinprick responses returned with 0% of MPE. […] To determine skin irritation (such as necrosis, swelling and inflammation), assessment in any macroscopic changes of the skin color and texture was further studied. Systemic side effects such as sedation, agitation, and respiratory distress were also evaluated. The observer was not informed about the drugs used.

[4] = cinnamaldehyde 0.5% alone, or given 10 min before lidocaine 0.5% / bupivacaine 0.0625%
[5] = cinnamaldehyde 1% alone, or given 10 min before lidocaine 0.5% / bupivacaine 0.0625%
[6] = cinnamaldehyde 2% alone, or given 10 min before lidocaine 0.5% / bupivacaine 0.0625%

CCCCN1CCCCC1C(=O)Nc1c(C)cccc1C (centres unmarked) [Bupivacaine, 1-butyl-N-(2,6-dimethylphenyl)piperidine-2-carboxamide]
time of complete recovery (CRT) ([1]; cinnamaldehyde 0% (vehicle): lidocaine 0.5% or bupivacaine 0.0625% alone): 91.88 ± 4.43 min and 91.88 min | time of complete recovery (CRT) [1, 4]: 78.75 min | time of complete recovery (CRT) [1, 5]: 116.25 ± 4.70 min and 116.25 min | time of complete recovery (CRT) [1, 6]: 159.38 ± 6.30 min and 159.38 min | duration of complete nociceptive block ([1]; s.c., bupivacaine 0.0625% alone): approximately 45 minutes | complete nociceptive block to pinpricks ([1]; s.c., cinnamaldehyde 0.5%, 1%, 2% followed 10 min later by bupivacaine 0.0625%): increased

O=CC=Cc1ccccc1 [Cinnamaldehyde, cinnamaldehyde]
time of complete recovery (CRT) [1, 4]: 43.13 ± 5.97 min and 43.13 min | time of complete recovery (CRT) [1, 5]: 63.75 ± 4.70 min and 63.75 min | time of complete recovery (CRT) [1, 6]: 95.63 ± 3.95 min and 95.63 min | analgesic effect, dose dependence ([1]; s.c., cinnamaldehyde alone at 0.5%, 1% and 2%): dose-dependent analgesic effect | lymphocytic infiltration (tissue inflammation) in subcutaneous layer [2]: More lymphocytic infiltrations | skin irritation [3]: neither obvious change of skin color nor injury was observed

CCN(CC)CC(=O)Nc1c(C)cccc1C [Lidocaine, 2-(diethylamino)-N-(2,6-dimethylphenyl)acetamide]
time of complete recovery (CRT) [1, 4]: 65.63 ± 2.74 min and 65.63 min | time of complete recovery (CRT) [1, 5]: 106.88 ± 3.40 min and 106.88 min | time of complete recovery (CRT) [1, 6]: 157.50 ± 5.67 min and 157.50 min | duration of complete nociceptive block to pinpricks ([1]; s.c., 2% cinnamaldehyde followed 10 min later by 0.5% lidocaine): about 15 minutes | analgesic effect, dose dependence ([1]; s.c., cinnamaldehyde 0.5%, 1%, 2% followed by 0.5% lidocaine): Dose dependent analgesic effect
